Measured values published in ChEMBL document CHEMBL1135958, “Hepatobiliary excretion of dipyrrinone sulfonates in Mrp2-deficient (TR(-)) rats” (Bioorg Med Chem Lett, 2002).

Assay: Pharmacokinetic parameter (Tmax) was estimated
Type: ADME, organism-based
Conditions: rat, in vivo

With CCC1=C(C)C(=O)N/C1=C\c1[nH]c(C)c(CCS(=O)(=O)O)c1C as the compound, how does the Tmax read?
The Tmax was 6 min.
